# Earlier results as cited in PubChem BioAssay AID1259409 (Chemical Carcinogenesis Research Information System (CCRIS), 2018).
# System: rodent chemically induced tumor inhibition, incidence and multiplicity
# Experiment: CCRIS tumor inhibitor studies
structure (smiles),measurement,setting,value
O=c1oc2c(O)c(O)cc3c(=O)oc4c(O)c(O)cc1c4c23,"tumour outcome (control, treated, inhibition, significance)","Carcinogen: 7,12-DIMETHYLBENZ[A]ANTHRACENE, 57-97-6, Dose [Inhibitor]: 0, 2000 PPM IN DIET FROM 1 WK PRIOR TO CARCINOGEN TREATMENT TO 3 D POST CARCINOGEN TREATMENT (STUDY DURATION: 42 WK), Route [Inhibitor]: ORAL, Species: FISH, Strain/Sex: RAINBOW TROUT/ MALE, FEMALE, Target Tissue: Type of Lesion: STOMACH: TUMOR, Dose [Carcinogen]: 5.5 PPM IN WATER FOR 1 HR, Promoter: NONE USED","88%, 78%, 11%, p<0.05"
same,"tumour outcome (control, treated, inhibition, significance)","Carcinogen: 7,12-DIMETHYLBENZ[A]ANTHRACENE, 57-97-6, Dose [Inhibitor]: 0, 2000 PPM IN DIET FROM 3 WK PRIOR TO CARCINOGEN TREATMENT TO 3 D POST CARCINOGEN TREATMENT (STUDY DURATION: 42 WK), Route [Inhibitor]: ORAL, Species: FISH, Strain/Sex: RAINBOW TROUT/ MALE, FEMALE, Target Tissue: Type of Lesion: LIVER: TUMOR, Dose [Carcinogen]: 4.16 PPM IN WATER FOR 1 HR, Promoter: NONE USED","7%, 22%, -214%, p<0.001"
same,"tumour outcome (control, treated, inhibition, significance)","Carcinogen: 7,12-DIMETHYLBENZ[A]ANTHRACENE, 57-97-6, Dose [Inhibitor]: 0, 2000 PPM IN DIET FROM 3 WK PRIOR TO CARCINOGEN TREATMENT TO 3 D POST CARCINOGEN TREATMENT (STUDY DURATION: 42 WK), Route [Inhibitor]: ORAL, Species: FISH, Strain/Sex: RAINBOW TROUT/ MALE, FEMALE, Target Tissue: Type of Lesion: SWIM BLADDER: TUMOR, Dose [Carcinogen]: 4.16 PPM IN WATER FOR 1 HR, Promoter: NONE USED","14%, 61%, -336%, p<0.001"
same,"tumour outcome (control, treated, inhibition, significance)","Carcinogen: 7,12-DIMETHYLBENZ[A]ANTHRACENE, 57-97-6, Dose [Inhibitor]: O, 2000 PPM IN DIET FROM 3 WK PRIOR TO CARCINOGEN TREATMENT TO 3D POST CARCINOGEN TREATMENT (STUDY DURATION: 42 WK), Route [Inhibitor]: ORAL, Species: FISH, Strain/Sex: RAINBOW TROUT/ MALE, FEMALE, Target Tissue: Type of Lesion: STOMACH: TUMOR, Dose [Carcinogen]: 4.16 PPM IN WATER FOR 1 HR, Promoter: NONE USED","97%, 94%, 3%, not significant"
same,"tumour outcome (control, treated, inhibition, significance)","Carcinogen: (+/-)-1BETA,2ALPHA-DIHYDROXY-3ALPHA,4ALPHA-EPOXY-1,2,3,4-TETRAHYDROBENZO[A]PYRE NE, 78919-11-6, Dose [Inhibitor]: 0, 300 NMOL (TOTAL DOSE) APPLIED 10 MIN PRIOR TO CARCINOGEN DOSE INJECTED AS 1/7, 2/7, AND 4/7 OF THE TOTAL ON DAYS 1, 8, Route [Inhibitor]: INTRAPERITONEAL, Species: MOUSE, Strain/Sex: ICR/MALE, FEMALE, Target Tissue: Type of Lesion: LUNG: TUMOR, Dose [Carcinogen]: 50 NMOL (TOTAL DOSE) INJECTED IN DOSES OF 1/7, 2/7, AND 4/7 ON DAYS 1, 8, AND 15 OF LIFE, RESPECTIVELY, Promoter: NONE USED","93%, 86%, 8%, not significant"
same,"tumour outcome (control, treated, inhibition, significance)","Carcinogen: (+/-)-7BETA,8ALPHA-DIHYDROXY-9ALPHA,10ALPHA-EPOXY-7,8,9,10-TETRAHYDROBENZO[A]PYR ENE, 58917-67-2, Dose [Inhibitor]: 0, 300 NMOL (TOTAL DOSE) APPLIED 10 MIN PRIOR TO CARCINOGEN DOSE INJECTED AS 1/7, 2/7, AND 4/7 OF THE TOTAL ON DAYS 1, 8, Route [Inhibitor]: INTRAPERITONEAL, Species: MOUSE, Strain/Sex: ICR/MALE, FEMALE, Target Tissue: Type of Lesion: LUNG: TUMOR, Dose [Carcinogen]: 15 NMOL (TOTAL DOSE) INJECTED IN DOSES OF 1/7, 2/7, AND 4/7 ON DAYS 1, 8, AND 15 OF LIFE, RESPECTIVELY, Promoter: NONE USED","86%, 76%, 12%, not significant"
same,"tumour outcome (control, treated, inhibition, significance)","Carcinogen: (+/-)-7BETA,8ALPHA-DIHYDROXY-9ALPHA,10ALPHA-EPOXY-7,8,9,10-TETRAHYDROBENZO[A]PYR ENE, 58917-67-2, Dose [Inhibitor]: 0, 1250 NMOL IN 200 µL ACETONE:METHANOL (45:55) ONCE APPLIED 5 MIN PRIOR TO CARCINOGEN DOSE (STUDY DURATION: 21 WK), Route [Inhibitor]: DERMAL, Species: MOUSE, Strain/Sex: CD-1/FEMALE, Target Tissue: Type of Lesion: SKIN: TUMOR, Dose [Carcinogen]: 200 NMOL IN ACETONE:DMSO (90:10) ONCE, Promoter: 12-O-TETRADECANOYLPHORBOL-13-ACETATE, 16561-29-8","62%, 50%, 19%, not significant"
same,"tumour outcome (control, treated, inhibition, significance)","Carcinogen: (+/-)-7BETA,8ALPHA-DIHYDROXY-9ALPHA,10ALPHA-EPOXY-7,8,9,10-TETRAHYDROBENZO[A]PYR ENE, 58917-67-2, Dose [Inhibitor]: 0, 2500 NMOL IN 200 µL ACETONE:METHANOL (45:55) ONCE APPLIED 5 MIN PRIOR TO CARCINOGEN DOSE (STUDY DURATION: 21 WK), Route [Inhibitor]: DERMAL, Species: MOUSE, Strain/Sex: CD-1/FEMALE, Target Tissue: Type of Lesion: SKIN: TUMOR, Dose [Carcinogen]: 200 NMOL IN ACETONE:DMSO (90:10) ONCE, Promoter: 12-O-TETRADECANOYLPHORBOL-13-ACETATE, 16561-29-8","62%, 43%, 31%, not significant"
same,"tumour outcome (control, treated, inhibition, significance)","Carcinogen: (+/-)-7BETA,8ALPHA-DIHYDROXY-9ALPHA,10ALPHA-EPOXY-7,8,9,10-TETRAHYDROBENZO[A]PYR ENE, 58917-67-2, Dose [Inhibitor]: 0, 2500 NMOL IN 200 µL ACETONE:METHANOL (45:55) ONCE APPLIED 30 MIN PRIOR TO CARCINOGEN DOSE (STUDY DURATION: 21 WK), Route [Inhibitor]: DERMAL, Species: MOUSE, Strain/Sex: CD-1/FEMALE, Target Tissue: Type of Lesion: SKIN: TUMOR, Dose [Carcinogen]: 200 NMOL IN ACETONE:DMSO (90:10) ONCE, Promoter: 12-O-TETRADECANOYLPHORBOL-13-ACETATE, 16561-29-8","53%, 33%, 38%, not significant"
same,"tumour outcome (control, treated, inhibition, significance)","Carcinogen: (+/-)-7BETA,8ALPHA-DIHYDROXY-9ALPHA,10ALPHA-EPOXY-7,8,9,10-TETRAHYDROBENZO[A]PYR ENE, 58917-67-2, Dose [Inhibitor]: 0, 2500 NMOL IN 200 µL ACETONE:METHANOL (45:55) ONCE APPLIED 120 MIN PRIOR TO CARCINOGEN DOSE (STUDY DURATION: 21 WK), Route [Inhibitor]: DERMAL, Species: MOUSE, Strain/Sex: CD-1/FEMALE, Target Tissue: Type of Lesion: SKIN: TUMOR, Dose [Carcinogen]: 200 NMOL IN ACETONE:DMSO (90:10) ONCE, Promoter: 12-O-TETRADECANOYLPHORBOL-13-ACETATE, 16561-29-8","63%, 43%, 32%, not significant"
same,"tumour outcome (control, treated, inhibition, significance)","Carcinogen: AZOXYMETHANE, 25843-45-2, Dose [Inhibitor]: 0, 4000 PPM IN DIET BEGINNING PRIOR TO CARCINOGEN DOSE AND CONTINUING FOR DURATION OF STUDY (STUDY DURATION: 54 WK), Route [Inhibitor]: ORAL, Species: RAT, Strain/Sex: F344/MALE, Target Tissue: Type of Lesion: COLON: ADENOCARCINOMA, Dose [Carcinogen]: 15 MG/KG 1/WK FOR 2 WK, Promoter: NONE USED","72%, 64%, 11%, not calculated"
same,"tumour outcome (control, treated, inhibition, significance)","Carcinogen: AZOXYMETHANE, 25843-45-2, Dose [Inhibitor]: 0, 4000 PPM IN DIET BEGINNING PRIOR TO CARCINOGEN DOSE AND CONTINUING FOR DURATION OF STUDY (STUDY DURATION: 54 WK), Route [Inhibitor]: ORAL, Species: RAT, Strain/Sex: F344/MALE, Target Tissue: Type of Lesion: COLON: ADENOMA, Dose [Carcinogen]: 15 MG/KG 1/WK FOR 2 WK, Promoter: NONE USED","14%, 8%, 43%, not calculated"
